This note sets out measurements from ChEMBL document CHEMBL1201862, “PubChem BioAssay data set” (2004).

Some test systems named below: OVCAR-5; HOP-92; RXF 393; SK-OV-3; HL-60; K562; HCT-15; SK-MEL-5; NCI-H226; U-251; OVCAR-4; KM12; HT-29; UO-31; NCI-H522; EKVX; SF-268; UACC-257; HCT-116; A549.
Holding throughout (assay): NCI tumour cell line growth inhibition, 48 h

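Grown in 96-well plates, cells were treated for 48 hours with each compound at five concentrations. Insufficient inhibition: endpoint recorded as highest concentration tested. GI50 marks 50% less growth.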 Calls of active or inactive are those of the source. No stated cut-off is given here; in the data, active = GI50 up to about 1.1 µM and inactive = higher.

On to `O=C1C[C@H](c2ccccc2)C2(C(=O)c3ccccc3C2=O)[C@@H](c2ccccc2)C1`, for which the GI50 with OVCAR-5 is 42.2 µM (inactive); in the test with HOP-92, 13.6 µM (inactive); in the test on RXF 393, 6.04 µM (inactive); in the test on SK-OV-3, 21.2 µM (inactive); in the test with HL-60, 73.1 µM (inactive); with K562, 9.86 µM (inactive). The GI50 in the test with HCT-15 was 25.3 µM; in the test on SK-MEL-5, 16.9 µM (inactive); with NCI-H226, 24.9 µM (inactive); with U-251, 31.5 µM (inactive); with OVCAR-4 it was 14.4 µM (inactive); in the test with KM12, > 10 µM (inactive). Further, the GI50 was 26.4 µM (inactive) in the test with HT-29, 33.3 µM (inactive) in the test on UO-31 and 30.2 µM (inactive) in the test on NCI-H522.

`CC1OC(OC2C(OC(=O)[C@@H]3CC(C)(C)C[C@H]4C5=CC[C@@H]6[C@@]7(C)C[C@H](O)[C@H](OC8OC(CO)C(O)C(O)C8O)[C@@](C)(CO)[C@@H]7[C@H](O)C[C@@]6(C)[C@]5(C)CC[C@@]34C)OCC(O)C2O)C(O)C(O)C1O` (some centres undefined): the GI50 in the test with OVCAR-5, in the test on HOP-92, with EKVX, with RXF 393, in the test on SK-OV-3 and with HL-60 was > 7.5 µM (inactive) each time. In addition, the GI50 was > 7.5 µM (inactive) in the test with SF-268; > 7.5 µM (inactive) in the test on K562; greater than 7.5 µM with HCT-15; > 7.5 µM (inactive) with UACC-257; > 7.5 µM (inactive) with SK-MEL-5; > 7.5 µM (inactive) with HCT-116. The GI50 in the test with NCI-H226, in the test with U-251, in the test on OVCAR-4, with KM12, with HT-29 and with UO-31 was > 7.5 µM (inactive) each time. Further, in the test on NCI-H522, the GI50 was > 7.5 µM (inactive).

Regarding `C=CC(OCC)(OCC)OCC`, the GI50 with A549, with OVCAR-5, in the test on HOP-92, with EKVX, with RXF 393 and with SK-OV-3 was > 100 µM (inactive) throughout. Also, the GI50 in the test on HL-60 was > 100 µM (inactive); in the test with SF-268, > 100 µM (inactive); in the test with K562, > 100 µM (inactive); in the test with HCT-15, 53.1 µM; in the test with UACC-257, > 100 µM (inactive); in the test on SK-MEL-5 it was > 100 µM (inactive). Besides, the GI50 in the test on HCT-116 was 20.6 µM (inactive); in the test with NCI-H226, > 100 µM (inactive); in the test with U-251, > 100 µM (inactive); in the test on OVCAR-4, > 100 µM (inactive); in the test on KM12 it was > 100 µM (inactive); in the test with HT-29, > 100 µM (inactive). Moreover, the GI50 in the test with UO-31 and in the test on NCI-H522 was > 100 µM (inactive) each time.

In the case of `CC1=C(C(=O)N[C@@H](CC(C)C)C(=O)O)N2C(=O)[C@@H](NC(=O)C(N)c3ccccc3)[C@H]2SC1` (some centres undefined), the GI50 with A549, with OVCAR-5, with HOP-92, in the test with EKVX, with RXF 393 and in the test with HL-60 was > 100 µM (inactive) each time. Further, the GI50 in the test with SF-268 was > 100 µM (inactive); in the test with K562, > 100 µM (inactive); in the test on HCT-15, greater than 100 µM; in the test on UACC-257, > 100 µM (inactive); in the test on SK-MEL-5 it was > 100 µM (inactive); in the test with NCI-H226, 60.4 µM (inactive). Further, the GI50 with U-251, in the test on OVCAR-4, with KM12 and in the test on NCI-H522 was > 100 µM (inactive) in each case.

As to `CC1CC2C3CC(F)C4=CC(=O)C=CC4(C)C3(F)C(O)CC2(C)C1(O)C(=O)COC(=O)C(C)(C)C` (centres undefined), the GI50 was 54.6 µM (inactive) in the test with A549; > 100 µM (inactive) in the test with OVCAR-5; > 100 µM (inactive) in the test with HOP-92; > 100 µM (inactive) with EKVX; 18.7 µM (inactive) with RXF 393; > 100 µM (inactive) in the test with HL-60. Moreover, the GI50 in the test with SF-268 was 64.4 µM (inactive); in the test on K562 it was > 100 µM (inactive); with HCT-15, greater than 100 µM; in the test on UACC-257, 57.9 µM (inactive); in the test with SK-MEL-5, > 100 µM (inactive); with HCT-116 it was > 100 µM (inactive). For the same compound, the GI50 with NCI-H226 is > 100 µM (inactive); in the test on U-251, > 100 µM (inactive); with OVCAR-4, 27.4 µM (inactive); with KM12, > 100 µM (inactive); with HT-29, > 100 µM (inactive); in the test with UO-31, > 100 µM (inactive). Further, the GI50 with NCI-H522 is 71 µM (inactive).

`O=C1OC(=O)C2C1C(c1ccccc1[N+](=O)[O-])C=C(c1ccco1)N2c1ccncc1` (centres undefined): the GI50 with A549 is 13.6 µM (inactive); in the test with OVCAR-5 it was 18.2 µM (inactive); in the test on HOP-92, 3.68 µM (inactive); with EKVX it was 15.2 µM (inactive); in the test on RXF 393, 4.67 µM (inactive); with SK-OV-3 it was 17.6 µM (inactive). Besides, the GI50 was 1.77 µM (inactive) in the test on HL-60; 10.3 µM (inactive) in the test with SF-268; 1.35 µM (inactive) in the test with K562; 2.92 µM with HCT-15; 2.08 µM (inactive) in the test on UACC-257; 4.09 µM (inactive) with SK-MEL-5. For the same compound, the GI50 with HCT-116 is 1.83 µM (inactive); in the test with NCI-H226, 12.8 µM (inactive); in the test on U-251, 3.94 µM (inactive); with OVCAR-4, 15.2 µM (inactive); in the test with KM12 it was 1.98 µM (inactive); in the test with HT-29, 2.57 µM (inactive). For the same compound, the GI50 in the test on UO-31 was 6.01 µM (inactive); with NCI-H522, 2.28 µM (inactive).

As to `CC(C)C1CNC(=O)C2(/C=N/C(C(C)C)CNC(=O)C3(/C=N/1)CCCO3)CCCO2` (centres undefined), the GI50 in the test on A549, with HOP-92, in the test on EKVX, with RXF 393, in the test with SK-OV-3 and in the test with HL-60 was > 10 µM (inactive) each time. For the same compound, the GI50 in the test on SF-268 is > 10 µM (inactive); with K562 it was > 10 µM (inactive); with HCT-15 it was greater than 10 µM; in the test with UACC-257, > 10 µM (inactive); in the test with SK-MEL-5, > 10 µM (inactive); in the test on HCT-116, > 10 µM (inactive). Further, the GI50 in the test with U-251, in the test with OVCAR-4, in the test with KM12, in the test on HT-29 and in the test on NCI-H522 was > 10 µM (inactive) each time.

Turning to `Nc1c(Cl)c([N+](=O)[O-])cc2c1OCCCCO2`, the GI50 in the test with A549 is > 100 µM (inactive); in the test on OVCAR-5, > 100 µM (inactive); in the test on HOP-92, 38.4 µM (inactive); in the test on EKVX, 61.8 µM (inactive); with RXF 393 it was > 100 µM (inactive); in the test on SK-OV-3 it was 18.3 µM (inactive). The GI50 is > 100 µM (inactive) with HL-60; > 100 µM (inactive) in the test on SF-268; > 100 µM (inactive) in the test with K562; greater than 100 µM in the test on HCT-15; > 100 µM (inactive) in the test with UACC-257; 44.9 µM (inactive) in the test with SK-MEL-5. The GI50 in the test with HCT-116 is > 100 µM (inactive); in the test with NCI-H226 it was 72.3 µM (inactive); in the test with U-251, 3.9 µM (inactive); in the test with OVCAR-4, > 100 µM (inactive); in the test on KM12 it was > 100 µM (inactive); with HT-29 it was > 100 µM (inactive). For the same compound, the GI50 with UO-31 was > 100 µM (inactive); in the test on NCI-H522, 2.32 µM (inactive).

`COC(=O)C1=CC[C@@H]2C(C(=O)O)=CO[C@@H](OC3OC(CO)C(O)C(O)C3O)[C@H]12` (some centres undefined): the GI50 in the test on A549 is > 300 µM (inactive); with OVCAR-5, > 300 µM (inactive); in the test with HOP-92, > 110 µM (inactive); with EKVX, > 300 µM (inactive); with RXF 393, > 300 µM (inactive); with SK-OV-3 it was > 300 µM (inactive). In addition, the GI50 was > 300 µM (inactive) in the test with HL-60; > 300 µM (inactive) in the test with SF-268; > 300 µM (inactive) in the test with K562; greater than 300 µM with HCT-15; > 300 µM (inactive) in the test with UACC-257; > 151 µM (inactive) in the test with SK-MEL-5. The GI50 in the test on HCT-116 was > 300 µM (inactive); with NCI-H226 it was 299 µM (inactive); in the test with U-251, > 300 µM (inactive); in the test on OVCAR-4 it was > 300 µM (inactive); with KM12, > 300 µM (inactive); in the test with HT-29, > 300 µM (inactive). Further, the GI50 with UO-31 and in the test on NCI-H522 was > 300 µM (inactive) throughout.

Regarding `Cc1cc(NS(=O)(=O)c2ccc(Nc3c4ccccc4nc4c(C(=O)N5CCN(CCO)CC5)ccc(Cl)c34)cc2)no1`, the GI50 in the test with A549 is > 100 µM (inactive); with OVCAR-5, > 100 µM (inactive); in the test on HOP-92 it was > 100 µM (inactive); in the test on RXF 393, > 100 µM (inactive); in the test with SK-OV-3 it was > 100 µM (inactive); in the test on HL-60, 60.3 µM (inactive). Moreover, the GI50 was 98.9 µM (inactive) with SF-268; 48.4 µM (inactive) with K562; greater than 100 µM with HCT-15; > 100 µM (inactive) with UACC-257; 36.3 µM (inactive) with SK-MEL-5; > 100 µM (inactive) in the test on HCT-116. In addition, the GI50 with NCI-H226, in the test with U-251, in the test with OVCAR-4, in the test with KM12, with HT-29 and in the test on UO-31 was > 100 µM (inactive) in each case.
